From ChEMBL document CHEMBL1123701, “Synthesis and quantitative structure-activity relationship analysis of N-triiodoallyl- and N-iodopropargylazoles. New antifungal agents” (1987)
Converted amounts (≈) assume the structure as drawn.

Experiments:
[1] = tested on: Cryptococcus neoformans; experiment: Antifungal activity against Cryptococcus neoformans Cr-1 strain; format: functional
[2] = tested on: Aspergillus fumigatus; experiment: Antifungal activity against Aspergillus fumigatus Saito strain; format: functional
[3] = tested on: Trichophyton interdigitale; experiment: Antifungal activity towards Trichophyton interdigitale; format: functional
[4] = tested on: Candida albicans; experiment: Antifungal activity against Candida albicans C-A-24 strain; format: functional
[5] = tested on: Trichophyton benhamiae; experiment: Antifungal activity towards Trichophyton mentagrophytes 530324 strain; format: functional, Arthroderma benhamiae

Row | SMILES | MIC [1] [µg/mL] | MIC [2] [µg/mL] | MIC [3] [µg/mL] | MIC [4] [µg/mL] | MIC [5] [µg/mL]
1 | COc1ccc(-c2nnn(CC(I)=C(I)I)n2)cc1 | > 100 | 25 (≈ 42.1 µM) | > 100 | > 100 | 25 (≈ 42.1 µM)
2 | N#Cc1ccc(-c2nnn(CC#CI)n2)cc1 | 50 (≈ 149 µM) | 6.25 (≈ 18.7 µM) | 1.56 (≈ 4.66 µM) | 50 (≈ 149 µM) | 3.13 (≈ 9.34 µM)
3 | FC(F)(F)c1cccc(-c2nnn(CC#CI)n2)c1 | 1.56 (≈ 4.13 µM) | 3.13 (≈ 8.28 µM) | 0.1 (≈ 0.264 µM) | 3.13 (≈ 8.28 µM) | 0.1 (≈ 0.264 µM)
4 | COc1ccc(Cl)cc1C(=O)c1cccn1CC(I)=C(I)I | 25 (≈ 38.3 µM) | 25 (≈ 38.3 µM) | 12.5 (≈ 19.1 µM) | 25 (≈ 38.3 µM) | 12.5 (≈ 19.1 µM)
5 | Clc1cccc(-c2nnn(CC#CI)n2)c1 | 0.39 (≈ 1.13 µM) | 0.78 (≈ 2.26 µM) | 0.1 (≈ 0.29 µM) | 0.78 (≈ 2.26 µM) | 0.1 (≈ 0.29 µM)
6 | IC#CCn1nccn1 | 1.56 (≈ 6.69 µM) | 0.78 (≈ 3.35 µM) | 0.78 (≈ 3.35 µM) | 1.56 (≈ 6.69 µM) | 0.39 (≈ 1.67 µM)
7 | IC#CCn1ccnc1 | 6.25 (≈ 26.9 µM) | 12.5 (≈ 53.9 µM) | 6.25 (≈ 26.9 µM) | 12.5 (≈ 53.9 µM) | 6.25 (≈ 26.9 µM)
8 | NC(=O)c1ccc(-c2nnn(CC#CI)n2)cc1 | 12.5 (≈ 35.4 µM) | > 100 | 3.13 (≈ 8.86 µM) | > 100 | 6.25 (≈ 17.7 µM)
9 | O=[N+]([O-])c1ncnn1CC#CI | 0.78 (≈ 2.81 µM) | 0.39 (≈ 1.4 µM) | 0.78 (≈ 2.81 µM) | 3.13 (≈ 11.3 µM) | 0.39 (≈ 1.4 µM)
10 | O=[N+]([O-])c1cccn1CC#CI | 0.39 (≈ 1.41 µM) | 0.39 (≈ 1.41 µM) | 0.39 (≈ 1.41 µM) | 0.78 (≈ 2.83 µM) | 0.1 (≈ 0.362 µM)
11 | IC#CCn1cccn1 | 0.78 (≈ 3.36 µM) | 0.78 (≈ 3.36 µM) | 0.39 (≈ 1.68 µM) | 3.13 (≈ 13.5 µM) | 0.39 (≈ 1.68 µM)
12 | CC(C)c1nnn(CC#CI)n1 | 3.13 (≈ 11.3 µM) | 0.78 (≈ 2.83 µM) | 0.78 (≈ 2.83 µM) | 1.56 (≈ 5.65 µM) | 0.78 (≈ 2.83 µM)
13 | Cc1ccnn1CC#CI | 1.56 (≈ 6.34 µM) | 0.78 (≈ 3.17 µM) | 0.78 (≈ 3.17 µM) | 6.25 (≈ 25.4 µM) | 0.39 (≈ 1.59 µM)
14 | O=[N+]([O-])c1ccc(-c2nnn(CC#CI)n2)cc1 | 3.13 (≈ 8.81 µM) | 6.25 (≈ 17.6 µM) | 0.39 (≈ 1.1 µM) | 25 (≈ 70.4 µM) | 0.2 (≈ 0.563 µM)
15 | O=[N+]([O-])c1c(Cl)c(Cl)n(CC(I)=C(I)I)c1Cc1cc(Cl)cc(Cl)c1O | > 25 | > 25 | 25 (≈ 32.3 µM) | > 25 | 25 (≈ 32.3 µM)
16 | Cc1nnnn1CC#CI | 3.13 (≈ 12.6 µM) | 6.25 (≈ 25.2 µM) | 3.13 (≈ 12.6 µM) | 6.25 (≈ 25.2 µM) | 3.13 (≈ 12.6 µM)

Row | SMILES | MIC [1] [µg/mL] | MIC [2] [µg/mL] | MIC [3] [µg/mL] | MIC [4] [µg/mL] | MIC [5] [µg/mL]
17 | CC(=O)c1cccn1CC(I)=C(I)I | > 25 | 12.5 (≈ 23.7 µM) | 0.39 (≈ 0.74 µM) | 12.5 (≈ 23.7 µM) | 1.56 (≈ 2.96 µM)
18 | CCCc1nnnn1CC#CI | 3.13 (≈ 11.3 µM) | 3.13 (≈ 11.3 µM) | 1.56 (≈ 5.65 µM) | 6.25 (≈ 22.6 µM) | 0.78 (≈ 2.83 µM)
19 | CCc1nnnn1CC(I)=C(I)I | > 25 | 25 (≈ 48.5 µM) | 3.13 (≈ 6.07 µM) | > 25 | 1.56 (≈ 3.02 µM)
20 | IC#CCn1ccnn1 | 1.56 (≈ 6.69 µM) | 0.78 (≈ 3.35 µM) | 0.78 (≈ 3.35 µM) | 3.13 (≈ 13.4 µM) | 0.78 (≈ 3.35 µM)
21 | CCOC(=O)c1cn(CC(I)=C(I)I)c(Cl)c1Cl | 25 (≈ 39.9 µM) | 25 (≈ 39.9 µM) | 3.13 (≈ 5 µM) | 25 (≈ 39.9 µM) | 3.13 (≈ 5 µM)
22 | CC(=O)c1c(C)cn(CC#CI)c1C | 25 (≈ 83 µM) | 3.13 (≈ 10.4 µM) | 6.25 (≈ 20.8 µM) | 25 (≈ 83 µM) | 1.56 (≈ 5.18 µM)
23 | Cc1ccc(-c2nnn(CC(I)=C(I)I)n2)cc1 | > 100 | > 100 | > 100 | > 100 | > 100
24 | Clc1cc(Cl)cc(-c2nnn(CC#CI)n2)c1 | 0.39 (≈ 1.03 µM) | 1.56 (≈ 4.12 µM) | 0.1 (≈ 0.264 µM) | 1.56 (≈ 4.12 µM) | 0.1 (≈ 0.264 µM)
25 | Cc1cncn1CC(I)=C(I)I | 12.5 (≈ 25 µM) | 3.13 (≈ 6.26 µM) | 1.56 (≈ 3.12 µM) | 12.5 (≈ 25 µM) | 1.56 (≈ 3.12 µM)
26 | O=[N+]([O-])c1cn(CC#CI)c(Cl)c1Cl | 1.56 (≈ 4.52 µM) | 0.39 (≈ 1.13 µM) | 0.39 (≈ 1.13 µM) | 0.78 (≈ 2.26 µM) | 0.1 (≈ 0.29 µM)
27 | O=[N+]([O-])c1c[nH]c(Cl)c1Cl | 25 (≈ 138 µM) | 25 (≈ 138 µM) | 3.13 (≈ 17.3 µM) | 100 (≈ 553 µM) | 6.25 (≈ 34.5 µM)
28 | Cc1nnn(CC#CI)n1 | 0.78 (≈ 3.14 µM) | 0.78 (≈ 3.14 µM) | 0.78 (≈ 3.14 µM) | 1.56 (≈ 6.29 µM) | 0.78 (≈ 3.14 µM)
29 | O=C(c1ccccc1)c1cccn1CC(I)=C(I)I | 6.25 (≈ 10.6 µM) | 6.25 (≈ 10.6 µM) | 3.13 (≈ 5.31 µM) | 6.25 (≈ 10.6 µM) | 1.56 (≈ 2.65 µM)
30 | CC(C)(C)c1nnnn1CC#CI | 25 (≈ 86.2 µM) | 6.25 (≈ 21.5 µM) | 0.78 (≈ 2.69 µM) | 12.5 (≈ 43.1 µM) | 3.13 (≈ 10.8 µM)
31 | O=[N+]([O-])c1ncnn1CC(I)=C(I)I | 0.78 (≈ 1.47 µM) | 0.39 (≈ 0.733 µM) | 0.2 (≈ 0.376 µM) | 12.5 (≈ 23.5 µM) | 0.39 (≈ 0.733 µM)
32 | IC(I)=C(I)Cn1nnnc1Cc1ccccc1 | > 25 | 25 (≈ 43.3 µM) | 0.1 (≈ 0.173 µM) | > 25 | 0.1 (≈ 0.173 µM)
